Data reported in article PMC10428205, “Cytotoxicity of Ruthenium(II) Arene Complexes Containing Functionalized Ferrocenyl β-Diketonate Ligands” (Organometallics, 2023).

What was measured:
[1] = test system: HCT116 p53+/+; test: 96 h MTT chemosensitivity assay; assay type: cell-based, human
Protocol: LogP = Log ( [C]final ) Eqn1
96 h Chemosensitivity Studies
In vitro chemosensitivity tests were performed at both the University of Huddersfield and the Institute of Cancer Therapeutics, Bradford, in a sterile Class II Biological Safety Cabinet fitted with a HEPA filtered laminar airflow.
Cellular assays were conducted against human pancreatic carcinoma (MIA PaCa-2), human colorectal carcinoma p53-wildtype (HCT116 p53+/+), and human non-cancerous epithelial retinal cells (ARPE-19). The ARPE-19 cells were obtained from the American Type Culture Collection and provided by the University of Huddersfield. All cell lines were routinely maintained as monolayer cultures in appropriate complete medium and maintained in either T-25 or T-75 flasks at 37 °C and 5% CO2. MIA PaCa-2 and ARPE-19 cells were cultured in high glucose DMEM-F12 medium containing 10% foetal calf serum, and HCT116 p53+/+ was cultured in RPMI 1640 supplemented with 10% foetal calf serum. All medium was supplemented with sodium pyruvate (1 mM) and L-glutamine (2 mM), and prior to chemosensitivity studies, cell monolayers were passaged using Trypsin-EDTA and diluted to a concentration of 1 x 10^4 cells/mL. All assays were conducted using 96-well plates, in which […] of the 1 x 10^4 cells/mL cell suspension was added to each well and incubated for 24 h at 37 °C and 5% CO2. After 24 h, 100 mL of drug dilutions (fresh 100 mM stock solutions in DMSO) in media were added to the plates and then incubated for a further 96 h at 37°C and 5% CO2 (48 h + 48 h recovery period were used for the shorter exposures with MIA PaCa-2 cells only). After 96 h, 20 mL MTT (3-(4,5-dimethylthiazol-2-yl)-2,5-diphenyltetrazolium bromide, 5 mg/mL) was added to each well and incubated for 3 h at 37 °C and 5% CO2. All solutions were then removed from the 96-well plates via pipette and […] of DMSO added to each well to dissolve the purple formazan crystals. After mixing well, the absorbance of each well was measured at 540 nm using a ThermoFisher Multiskan FC spectrophotometer microplate reader. Using the blank and 100% cell controls, the % cell viability was determined [(abs. of compound containing wells – abs. media wells)/(abs. 100% cell suspension well control)] and from this the % cell death (100%- % cell viability) was calculated. On a logarithmic scale, the percentage cell death was plotted against the concentration of compound, and from this the half maximal inhibitory concentration (IC50) value was determined. Each of the experiments were performed in triplicate with mean values being stated as the IC50 ± Standard Deviation (SD). […]
(§1) All assays were conducted in triplicate.

[2] = Hydrophobicity, octanol-water shake-flask; assay type: physicochemical
Protocol: curves to give an average concentration for shaken samples ([C]final). The concentration of an unshaken sample
of stock solution was determined to give [C]initial. The partition coefficient (LogP) was determined with by Eqn1. […]
as §1

[3] = test system: MIA PaCa-2; test: Comet assay of cellular DNA damage; assay type: cell-based, human; conditions: MIA PaCa-2, 48 h incubation, varying concentration
Protocol: Complexes 2, 4, and 7 were chosen due to their range in cytotoxicity, where complex 2 is moderately active and complexes 4 and 7 have the highest activities. Their ability to induce single-strand breakage (SSB) of DNA with varying concentrations of compound was studied after incubation with MIA PaCa-2 cells for 48 h. After harvesting the cells, quantification of the levels of SSB of DNA were assessed by using the alkaline comet assay.
Samples were then taken up in Optima high purity nitric acid, diluted to 10 mL with 1mL rhodium internal standard and 9 mL 18.2 Ultrapure water. The elemental contents of the samples were determined using ICP-MS-QQQ Thermo TQ spectrometer. Measurement of iron mass 56 and ruthenium isotope mass 100 was conducted by comparing solutions of known concentration and intensities. A series of standard calibration curves allows the concentration of each element to be determined. […]
The media -free wells were then trypsinized (1 mL) for 3 -5 minutes and then neutralized with high glucose DMEM (1 mL), these were all added to the centrifuge t ube and centrifuged at 1500 rpm for 3 minutes. […] Staining solution (150 mL) was added to each slide and the Comets analysed using Comet assay III software. A minimum of 50 different comets were scored and the computer outputs an average on head and tail intensities and tail moments. […]

IC50 ([1]; 96 h MTT, ± SD, read-out: IC50 against HCT116 p53+/+): 3.3 ± 0.4 µM | LogP [2]: -2.20 ± 0.20
Compound: [NH2][Pt]([NH2])([Cl])[Cl] [CDDP, cisplatin, reference compound]
Selectivity index (SI), IC50 ARPE-19 / IC50 HCT116 p53+/+ ([1]; 96 h, * = minimum value as at least one IC50 > 100): 1.8 | single-strand breakage (SSB) of DNA [3]: dose-dependent SSB similar to that of complex 4
